The experiment concerns IPF patient lung fibroblasts. In words: TGFβ-induced αSMA high-content imaging. The class given is cell-based, human. The conditions noted are these: even at 10 μM. As for the experimental part:
Normal human lung fibroblasts (Lonza) and Primary Human IPF Lung Parenchymal Fibroblasts (Donor2) (BioIVT, #PCR-70-0214) were incubated at 37 °C and 5% CO2. To induce fibrotic response in primary cells, a final concentration of 5 ng/ml of recombinant human TGFβ1 (BioLegend, #580702) was added to the culture media and treated for 24 ~ 48 h. Anti-TGFβ neutralizing antibody (1D11) and the isotype control mouse IgG1 were from BioXcell. SB-525334 and bleomycin were from Sigma. MK-0429 was synthesized by Merck & Co., Inc., Kenilworth, NJ, USA. CHOK1-integrin stable lines were cultured in DMEM/F12, Glutamax (Gibco #10565018), 10% FBS (Gibco 310091148), 1 × Pen/Strep (Gibco 315140-148), and 6 ug/mL Puromycin (Gibco #A1113803).
Primary cells (passage 3–5) were grown on Cell carrier Ultra, col1 coated 96-well plates (Perkin Elmer, #6055700) at a density of 25,000 cells/well. Once the cells adhere, they were starved in serum free media for 24 h followed by addition of treatments i.e. 5 ng/mL TGFβ (Biolegend #580702) ± inhibitors. Cells were pre-treated with inhibitors for 30 min prior to the addition of TGFβ stimulation. 48hours post treatment, the cells were fixed in 4% methanol free paraformaldehyde (ThermoFisher Scientific #28908) for 20 min at room temperature and incubated with anti-alpha smooth muscle Actin antibody (Abcam #ab7817) at 1:4000 overnight at 4 °C. […]

Turning to `COc1ccc(C(CC(=O)O)N2CCN(CCCc3ccc4c(n3)NCCC4)C2=O)cn1` (stereo not shown) [MK-0429], the “Inhibition of αSMA induction” value is recorded as “minimal activity”.
